Assay results taken from ChEMBL document CHEMBL1145422, “Spongian diterpenoids from the sponge Spongia (Heterofibria) sp” (2007).

Assay: Effect on lysosomal activation in mouse splenocytes at 100 ug/mL relative to control
Format: functional

SMILES | Activity
CC(=O)OC[C@@]1(C)CCC[C@]2(C)[C@H]3CCc4cocc4[C@]3(C)CC[C@@H]12 | 130%
CC(=O)OC[C@]1(C)[C@@H]2CC[C@@]3(C)c4cocc4CC[C@@H]3[C@@]2(C)CC[C@@H]1OC(C)=O | 130%
